According to patent US20160355782A1, “METHOD FOR ENHANCING DIFFERENTIATION OF DOPAMINERGIC NEURONS” (Buddhist Tzu Chi Medical Foundation, priority 2015, published 2016):

Columns and labels:
VM precursor cultures = experiment: Immuno-cytochemistry and TH+ cell counting in VM precursor cultures; type: cell-based, rat
Description: Briefly, ventral mesencephalic tissues were dissected from E14.5 Sprague-Dawley (SD) rats, and then dissociated enzymatically (0.1% trypsin) and mechanically. Cells were seeded into 24-well (1×10^5/cm^2) culture plates pre-coated with 20 μg/mL poly-D-lysine (Sigma-Aldrich), and were maintained in 0.5 mL/well of minimum essential medium (MEM) supplemented with 10% fetal bovine serum (FBS), 10% horse serum (HS), 1 g/L glucose, 2 mM L-glutamine, 1 mM sodium pyruvate, 100 μM nonessential amino acids, 100 U/mL penicillin, and 100 μg/mL streptomycin (all purchased from Invitrogen). Cultures were maintained at 37° C. in a humidified atmosphere of 5% CO2 and 95% air. For DA neuron differentiation, VM precursor cultures, four hours after seeding, were switched to Dulbecco's Modified Eagle's Medium (DMEM)/Ham's F12 (1:1) containing N2 supplement (Invitrogen, Carlsbad, Calif.), penicillin and streptomycin. Immediately following the switch to DMEM/F12 medium, VM precursor cells were treated with various concentration of rat UCN (from Sigma-Aldrich, St. Louis, Mo.) for the indicated periods. For neutralization of endogenous UCN bioactivity, anti-UCN antibody (15 μg/mL) (Santa Cruz Biotechnology, Santa Cruz, Calif.) was added to the VM precursor cultures.
(§1) For immuno-cytochemistry, cells were fixed with 4% paraformaldehyde followed by blocking with PBS containing 0.4% Triton X-100, 3% normal goat serum and 2% bovine serum albumin (BSA) for 1 h at room temperature. After blocking, cells were incubated overnight at room temperature with primary antibodies. Primary antibodies were rabbit anti-UCN (1:200), mouse anti-TH (1:2000) (both from Sigma-Aldrich), goat anti-CRHR1 (1:100), rabbit anti-CRHR2 (1:250), rat anti-dopamine transporter (DAT, 1:200), chicken anti-MAP2 (1:5000) (all from Abcam, Cambridge, Mass.), rabbit anti-Nurr1 (1:100, Santa Cruz Biotechnology), mouse anti-Nurr1 (1:100, R&D Systems, Minneapolis, Minn.), rabbit anti-TH (1:1000), mouse anti-NeuN (1:200) (both from Chemicon, Temecula, Calif.), rabbit anti-acetyl-histone H3 (1:1000, Upstate Biotechnology, Lake Placid, N.Y.), rabbit anti-Foxa2 (1:500, Cell Signaling Technology), and rabbit anti-Pitx3 (1:100, Invitrogen).
(§2) For detection of dopaminergic neurons, the bound anti-TH antibody was visualized by incubation with an appropriate biotinylated secondary antibody followed by the Vectastain avidin-biotin-peroxidase (ABC) reagents (Vector Laboratories, Burlingame, Calif.) and color development with 3,3′-diaminobenzidine. The number of TH-positive neurons were counted in the entire surface area of a culture well or coverslip. For fluorescent double-labeling experiments, cells were incubated for 1 h at room temperature with rhodamine-conjugated donkey anti-mouse IgG (1:250), FITC-conjugated goat anti-rabbit IgG (1:250) or FITC-conjugated donkey anti-goat IgG (1:200) secondary antibodies (all from Jackson Immuno Research, West Grove, Pa.). Samples were counter-stained with Hoechst 33342 (5 μg/mL, Sigma-Aldrich) or DAPI (1 μg/mL), and mounted with 50% glycerol in PBS. Microscopic observations were done with a Zeiss Axiovert 200 M fluorescent microscope or a Zeiss LSM 510 META confocal imaging system (Carl Zeiss, Oberkochen, Germany). Immuno-reactive or Hoechst 33342-stained cells were counted in at least 10 random areas of each culture coverslip at a magnification of 100×.

[1] = system: cortical neural precursor cells (NPCs); experiment: TH+ cell differentiation of lentivirus-transduced (Nurr1 or GFP) cortical NPCs; type: cell-based, rat
Description: Cultures of neural precursor cells (NPCs) derived from cortices at E13.5 were performed as the methods known by a person skilled in the art, for example, as the protocol described by Huang et al. (2012) and carried out with some modifications. Briefly, dissected cortical tissues were mechanically triturated and plated at 5×10^4 cells on coverslips (12-mm diameter) pre-coated with 20 μg/mL fibronectin (Invitrogen)/15 μg/mL poly-L-ornithine (Sigma-Aldrich) in 24 well plates. Cells were cultured in a serum-free NPCs culture medium containing DMEMF12, 2% B27 supplement (Invitrogen), 0.6% glucose, 20 ng/mL bFGF (Sigma-Aldrich), 20 ng/mL EGF (Invitrogen), 2 μg/mL heparin (Sigma-Aldrich), 100 U/mL penicillin, and 100 μg/mL streptomycin.
TH promoter assay or lenti-virial transductions were carried out at 60%˜70% cell confluences (usually for 3 days) as described below. Cell differentiation was induced for 3 to 5 days by switching to mitogens-free DMEM/F12/N2 medium in the presence of 0.5 μM UCN. Differentiation medium was changed every other day.
For lenti-viral transduction, E13 cortical NPCs were incubated with lenti-viruses (25 multiplicity of infection) expressing Nurr1 or GFP containing poly-brene (hexadimethrine bromide, 1 μg/mL, Sigma-Aldrich) for 24 hours. After 1 day of further cell expansion in the presence of the mitogens, cells were induced to differentiate.
as §1, §2

Compound	% TH+ cells out of total Nurr1+ cells (conversion of Nurr1+ precursors) (VM precursor cultures; 1.25 mM SB, 3 days)	cells with TH staining (VM precursor cultures; 1.25 mM SB, 3 days)	TH+ cell numbers ([1]; Nurr1-transduced cortical NPCs, SB, 3 days)	number of TH+ neurons over time (VM precursor cultures; 1 μM UCN as early as 1 day in vitro vs control medium at 4 days in vitro)	Nurr1-immuno-reactive intensity (VM precursor cultures; 1 μM UCN, 2 to 3 days)	level of Foxa2 and Pitx3 in Nurr1+ cells (VM precursor cultures; 1 μM UCN, 2 to 3 days)	TH+ cells co-expressing NeuN, MAP2 and DAT (VM precursor cultures; 1 μM UCN, 4 days, double immuno-staining)	number of Nurr1+ cells (VM precursor cultures; UCN treated cultures (control 4.91%±0.54%))	differentiation of Nurr1+/TH- precursors into Nurr1+/TH+ DA neurons (VM precursor cultures; UCN vs control)	numbers of TH+ cells (VM precursor cultures; increasing doses of UCN, 3 days)	conversion of Nurr1+ cortical NPCs into DA neurons ([1]; 0.5 μM UCN, 3 days)	TH+ cells expressing the mature DA neuron-specific marker DAT ([1]; Nurr1-transduced NPCs, 0.5 μM UCN, 4 days)	TH+ cell numbers ([1]; cortical NPCs transduced with GFP, 0.5 μM UCN, 3 days)	TH+ cell numbers ([1]; cortical NPCs transduced with Nurr1, 0.5 μM UCN, 3 days)
CCCC(=O)[O-].[Na+] [SB, sodium butyrate, reference compound]	increased DA cell numbers was through conversion of Nurr1^+ precursors into DA neurons	increase in cells with TH staining	increase in TH^+ cell numbers	–	–	–	–	–	–	–	–	–	–	–
Urocortin [UCN]	–	–	–	clearly higher than that of control medium	increased	increased level	all the TH^+ cells	4.68%±0.4%	more Nurr1^+ cells develop concomitant TH^+ expression	dose-dependent increase	increased the conversion	almost all of TH^+ cells	do not change	increase in TH^+ cell numbers
